Measured values reported in patent publication US20060069132A1, “Azolecarboxamide herbicides” (priority 2004, published 2006).

Experiments:
giant foxtail [1] = test: Test A pre-/postemergence herbicide test; type: in vivo, Setaria faberi
In short: (§1)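 Pre: seeded sandy loam, directed soil spray, compound in non-phytotoxic solvent + surfactant. Post: 1–2-leaf plants (2–10 cm), sprayed to runoff. Greenhouse ~10 d; visual injury vs untreated, 0–100 scale.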

Surinam grass = test: Test B pre-/postemergence herbicide test; type: in vivo, Urochloa decumbens; settings: for Surinam Grass plant response rating: postemergence, visual rating, scale 0 (no effect) to 100 (complete control)
In short: (§2)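 Greenhouse pot assay with simultaneous preemergence (treated seed) and postemergence (2–18 cm seedlings) applications of surfactant-containing, non-phytotoxic solvent formulations. Response scored visually 13–15 days later on a 0–100 scale, 100 meaning complete control.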

wild oat = test: Test B postemergence herbicide test; type: in vivo, Avena fatua; settings: postemergence, visual rating, scale 0 (no effect) to 100 (complete control)
In short: (§3)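 Greenhouse test; postemergence application to plants at 1–4 leaves (2–18 cm); paddy species at 2 leaves; evaluated visually vs controls at 13–15 days; scale 0–100 (100 = complete control).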

morningglory [2] = test: Test B pre-/postemergence herbicide test; type: in vivo, Ipomoea coccinea; settings: for Morningglory plant response rating: postemergence, visual rating, scale 0 (no effect) to 100 (complete control)
In short: (§4)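 Test chemicals in a non-phytotoxic solvent mixture with surfactant were applied preemergence to seeded species and postemergence to plants 2-18 cm tall (1- to 4-leaf stage); rice and barnyardgrass were also tested in a flooded paddy at the 2-leaf stage. Visual rating versus controls after 13-15 days in greenhouse, scale 0 (no effect) to 100 (complete control).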

large crabgrass [3] = test: Test B pre-/postemergence herbicide test; type: in vivo, Digitaria sanguinalis; settings: for Crabgrass, Large plant response rating: postemergence, visual rating, scale 0 (no effect) to 100 (complete control)
In short: as §2

rice [4] = test: Test B pre-/postemergence herbicide test; type: in vivo, Oryza sativa; settings: preemergence
In short: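 Species tested were Echinochloa crus-galli, Ipomoea coccinea, Xanthium strumarium and Oryza sativa, treated both before emergence and at the 1- to 4-leaf stage; rice and barnyardgrass were also tested under flooding at 2 leaves. Greenhouse incubation lasted 13–15 days before visual 0–100 scoring.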

velvetleaf [5] = test: Test A pre-/postemergence herbicide test; type: in vivo, Abutilon theophrasti
In short: as §1

barnyardgrass [6] = test: Test B flooded paddy test; type: in vivo, Echinochloa crus-galli; settings: 1000 g ai/ha, visual rating, scale 0 to 100 (0 no effect, 100 complete control), 13 to 15 days
In short: (§5)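 Paddy species grown to the 2-leaf stage under flooding; blackgrass sprayed postemergence at 2–18 cm (1- to 4-leaf stage). Plants kept in a greenhouse for 13 to 15 days, then visually rated against controls on 0 (no effect) to 100 (complete control).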

corn = test: Test B pre-/postemergence herbicide test; type: in vivo, Zea mays; settings: for Corn plant response rating: postemergence, visual rating, scale 0 (no effect) to 100 (complete control)
In short: as §2

barnyardgrass [7] = test: Test A pre-/postemergence herbicide test; type: in vivo, Echinochloa crus-galli
In short: as §1

pigweed = test: Test B pre-/postemergence herbicide test; type: in vivo, Amaranthus retroflexus; settings: for Pigweed plant response rating: postemergence, visual rating, scale 0 (no effect) to 100 (complete control)
In short: as §2

morningglory [8] = test: Test A pre-/postemergence herbicide test; type: in vivo, Ipomoea spp.
In short: as §1

[9] = test system: small flower umbrella sedge; test: Test B flooded paddy test; type: in vivo, Cyperus difformis; settings: 1000 g ai/ha, visual rating, scale 0 to 100 (0 no effect, 100 complete control), 13 to 15 days
In short: as §5

cocklebur = test: Test B pre-/postemergence herbicide test; type: in vivo, Xanthium strumarium; settings: for Cocklebur plant response rating: postemergence, visual rating, scale 0 (no effect) to 100 (complete control)
In short: as §4

lambsquarters = test: Test B pre-/postemergence herbicide test; type: in vivo, Chenopodium album; settings: for Lambsquarters plant response rating: postemergence, visual rating, scale 0 (no effect) to 100 (complete control)
In short: as §2

ducksalad = test: Test B flooded paddy test; type: in vivo, Heteranthera limosa; settings: 1000 g ai/ha, visual rating, scale 0 to 100 (0 no effect, 100 complete control), 13 to 15 days
In short: as §5

large crabgrass [10] = test: Test A pre-/postemergence herbicide test; type: in vivo, Digitaria sanguinalis
In short: as §1

rice [11] = test: Test B flooded paddy test; type: in vivo, Oryza sativa; settings: 1000 g ai/ha, visual rating, scale 0 to 100 (0 no effect, 100 complete control), 13 to 15 days
In short: as §3

wheat = test: Test B postemergence herbicide test; type: in vivo, Triticum aestivum; design: key to Wheat plant response rating: 0 = no effect, 100 = complete control; settings: postemergence, visual rating, scale 0 (no effect) to 100 (complete control)
In short: as §3

barnyardgrass [12] = test: Test B pre-/postemergence herbicide test; type: in vivo, Echinochloa crus-galli; settings: for Barnyardgrass plant response rating: postemergence, visual rating, scale 0 (no effect) to 100 (complete control)
In short: as §4

giant foxtail [13] = test: Test B pre-/postemergence herbicide test; type: in vivo, Setaria faberi; settings: for Foxtail, Giant plant response rating: postemergence, visual rating, scale 0 (no effect) to 100 (complete control)
In short: as §2

redroot pigweed = test: Test A pre-/postemergence herbicide test; type: in vivo, Amaranthus retroflexus
In short: as §1

velvetleaf [14] = test: Test B pre-/postemergence herbicide test; type: in vivo, Abutilon theophrasti; settings: for Velvetleaf plant response rating: postemergence, visual rating, scale 0 (no effect) to 100 (complete control)
In short: as §2

blackgrass = test: Test B postemergence herbicide test; type: in vivo, Alopecurus myosuroides; settings: postemergence, visual rating, scale 0 (no effect) to 100 (complete control)
In short: as §5

[15] = Postemergence, 500 g ai/ha, 0 to 100 scale, 0 no effect, 100 complete control
[16] = Postemergence, 2000 g ai/ha, 0 to 100 scale, 0 no effect, 100 complete control
[17] = Preemergence, 2000 g ai/ha, visual rating, 0 to 100 scale (0 no effect, 100 complete control)
[18] = preemergence, 500 g ai/ha, visual injury, 0 to 100 scale (0 no effect, 100 complete control)
[19] = 125 g ai/ha, 0 = no effect, 100 = complete control, preemergence
[20] = 500 g ai/ha, visual rating 0-100, 0 no effect, 100 complete control, preemergence

## Cc1nc(C(C)(C)C)sc1C(=O)Nc1cccc(C(=O)NCC(F)(F)F)c1 [Compound 201]
Giant foxtail [1]; [15]
  Foxtail, Giant plant response rating: 0
Giant foxtail [1]; [16]
  Plant response rating, Foxtail, Giant: 10
Giant foxtail [1]; [17]
  Foxtail, Giant plant response rating: 15
Giant foxtail [1]; [18]
  Foxtail, Giant plant response rating: 0
Surinam grass; [19]
  Surinam Grass plant response rating (0 to 100 scale): 0
Surinam grass; [20]
  Plant response rating, Surinam Grass: 0
Surinam grass; 125 g ai/ha
  Surinam Grass plant response rating: 0
Surinam grass; 500 g ai/ha
  Surinam Grass plant response rating: 10
Wild oat; 125 g ai/ha
  Oat, Wild plant response rating: 10
Wild oat; 500 g ai/ha
  Oat, Wild plant response rating: 10
Morningglory [2]; [19]
  Morningglory plant response rating (0 to 100 scale): 0
Morningglory [2]; [20]
  Plant response rating, Morningglory: 10
Morningglory [2]; 125 g ai/ha
  Morningglory plant response rating: 0
Morningglory [2]; 500 g ai/ha
  Morningglory plant response rating: 30
Large crabgrass [3]; [19]
  Crabgrass, Large plant response rating (0 to 100 scale): 0
Large crabgrass [3]; [20]
  Plant response rating, Crabgrass, Large: 60
Large crabgrass [3]; 125 g ai/ha
  Crabgrass, Large plant response rating: 0
Large crabgrass [3]; 500 g ai/ha
  Crabgrass, Large plant response rating: 10
Rice [4]; 125 g ai/ha, 0 = no effect, 100 = complete control
  Rice plant response rating (0 to 100 scale): 0
Rice [4]; 500 g ai/ha, visual rating 0-100, 0 no effect, 100 complete control
  Plant response rating, Rice: 0
Velvetleaf [5]; [15]
  Velvetleaf plant response rating: 10
Velvetleaf [5]; [16]
  Plant response rating, Velvetleaf: 10
Velvetleaf [5]; [17]
  Velvetleaf plant response rating: 35
Velvetleaf [5]; [18]
  Velvetleaf plant response rating: 0
Barnyardgrass [6]
  Barnyardgrass plant response rating: 0
corn; [19]
  Corn plant response rating (0 to 100 scale): 0
corn; [20]
  Plant response rating, Corn: 0
corn; 125 g ai/ha
  Corn plant response rating: 10
corn; 500 g ai/ha
  Corn plant response rating: 20
Barnyardgrass [7]; [15]
  Barnyardgrass plant response rating: 10
Barnyardgrass [7]; [16]
  Plant response rating, Barnyardgrass: 20
Barnyardgrass [7]; [17]
  Barnyardgrass plant response rating: 50
Barnyardgrass [7]; [18]
  Barnyardgrass plant response rating: 0
pigweed; [19]
  Pigweed plant response rating (0 to 100 scale): 0
pigweed; [20]
  Plant response rating, Pigweed: 20
pigweed; 125 g ai/ha
  Pigweed plant response rating: 10
pigweed; 500 g ai/ha
  Pigweed plant response rating: 40
Morningglory [8]; [15]
  Morningglory plant response rating: 25
Morningglory [8]; [16]
  Plant response rating, Morningglory: 30
Morningglory [8]; [17]
  Morningglory plant response rating: 5
Morningglory [8]; [18]
  Morningglory plant response rating: 0
[9]
  Sedge, Umbrella plant response rating: 0
cocklebur; [19]
  Cocklebur plant response rating (0 to 100 scale): 0
cocklebur; [20]
  Plant response rating, Cocklebur: 0
cocklebur; 125 g ai/ha
  Cocklebur plant response rating: 10
cocklebur; 500 g ai/ha
  Cocklebur plant response rating: 10
lambsquarters; [19]
  Lambsquarters plant response rating (0 to 100 scale): 0
lambsquarters; [20]
  Plant response rating, Lambsquarters: 30
lambsquarters; 125 g ai/ha
  Lambsquarters plant response rating: 40
lambsquarters; 500 g ai/ha
  Lambsquarters plant response rating: 40
ducksalad
  Ducksalad plant response rating: 0
Large crabgrass [10]; [15]
  Crabgrass, Large plant response rating: 10
Large crabgrass [10]; [16]
  Plant response rating, Crabgrass, Large: 20
Large crabgrass [10]; [17]
  Crabgrass, Large plant response rating: 70
Large crabgrass [10]; [18]
  Crabgrass, Large plant response rating: 35
Rice [11]
  Rice plant response rating: 0
wheat; 125 g ai/ha
  Wheat plant response rating: 0
wheat; 500 g ai/ha
  Wheat plant response rating: 0
Barnyardgrass [12]; [19]
  Barnyardgrass plant response rating (0 to 100 scale): 0
Barnyardgrass [12]; [20]
  Plant response rating, Barnyardgrass: 10
Barnyardgrass [12]; 125 g ai/ha
  Barnyardgrass plant response rating: 0
Barnyardgrass [12]; 500 g ai/ha
  Barnyardgrass plant response rating: 0
Giant foxtail [13]; [19]
  Foxtail, Giant plant response rating (0 to 100 scale): 0
Giant foxtail [13]; [20]
  Plant response rating, Foxtail, Giant: 0
Giant foxtail [13]; 125 g ai/ha
  Foxtail, Giant plant response rating: 0
Giant foxtail [13]; 500 g ai/ha
  Foxtail, Giant plant response rating: 0
Redroot pigweed; [15]
  Pigweed plant response rating: 40
Redroot pigweed; [16]
  Plant response rating, Pigweed: 55
Redroot pigweed; [17]
  Pigweed plant response rating: 95
Redroot pigweed; [18]
  Pigweed plant response rating: 40
Velvetleaf [14]; [19]
  Velvetleaf plant response rating (0 to 100 scale): 0
Velvetleaf [14]; [20]
  Plant response rating, Velvetleaf: 10
Velvetleaf [14]; 125 g ai/ha
  Velvetleaf plant response rating: 0
Velvetleaf [14]; 500 g ai/ha
  Velvetleaf plant response rating: 0
blackgrass; 125 g ai/ha
  Blackgrass plant response rating: 0
blackgrass; 500 g ai/ha
  Blackgrass plant response rating: 0
